Legend:
[1] = organism: Cavia porcellus; assay: Intrinsic activity was determined using spontaneously beating guinea pig atria by measuring contraction acceleration relative to isoproterenol response; assay type: functional
[2] = tested on: Monkey; assay: Compound was tested for in vivo lipolysis in african green monkeys after iv administration; assay type: functional; conditions: Cercopithecidae, in Primates

SMILES | IA [1] [%] | ED50 [2] [mg/kg]
COc1ccc([C@](C)(NC[C@H](O)c2ccc(O)c(NS(C)(=O)=O)c2)C(=O)Nc2cccc(C)c2)cc1 | 73 | –
COc1ccc([C@](C)(NC[C@H](O)c2ccc(O)c(NS(C)(=O)=O)c2)C(=O)Nc2ccc(Cl)cc2F)cc1 | 43 | –
COc1ccc([C@](C)(NC[C@H](O)c2ccc(O)c(NS(C)(=O)=O)c2)C(=O)Nc2cccc(Cl)c2)cc1 | 50 | –
COc1ccc([C@](C)(NC[C@H](O)c2ccc(O)c(NS(C)(=O)=O)c2)C(=O)Nc2ccc(O)cc2)cc1 | 90 | –
COc1ccc([C@](C)(NC[C@H](O)c2ccc(O)c(NS(C)(=O)=O)c2)C(=O)Nc2cc(Cl)cc(Cl)c2)cc1 | 13 | –
COc1ccc([C@](C)(NC[C@H](O)c2ccc(O)c(NS(C)(=O)=O)c2)C(=O)Nc2ccc(Cl)c(Cl)c2)cc1 | 8 | –
COc1ccc([C@](C)(NC[C@H](O)c2ccc(O)c(NS(C)(=O)=O)c2)C(=O)Nc2cccc(OC)c2)cc1 | 85 | –
COc1ccc([C@](C)(NC[C@H](O)c2ccc(O)c(NS(C)(=O)=O)c2)C(=O)Nc2cc(OC)c(OC)c(OC)c2)cc1 | 66 | –
COc1ccc([C@](C)(NC[C@H](O)c2ccc(O)c(NS(C)(=O)=O)c2)C(=O)Nc2cccc(CN)c2)cc1 | 91 | –
COc1ccc([C@](C)(NC[C@H](O)c2ccc(O)c(NS(C)(=O)=O)c2)C(=O)Nc2ccccc2C)cc1 | 83 | –
COc1ccc([C@](C)(NC[C@H](O)c2ccc(O)c(NS(C)(=O)=O)c2)C(=O)Nc2cccc(Br)c2)cc1 | 50 | –
COc1ccc([C@](C)(NC[C@H](O)c2ccc(O)c(NS(C)(=O)=O)c2)C(=O)Nc2ccc(C)cc2)cc1 | 90 | –
COc1ccc([C@](C)(NC[C@H](O)c2ccc(O)c(NS(C)(=O)=O)c2)C(=O)Nc2cccc(O)c2)cc1 | 96 | –
COc1ccc([C@](C)(NC[C@H](O)c2ccc(O)c(NS(C)(=O)=O)c2)C(=O)Nc2ccc(Cl)cc2)cc1 | 62 | 0.07
CCOP(=O)(Cc1ccc(NC(=O)[C@@](C)(NC[C@H](O)c2ccc(O)c(NS(C)(=O)=O)c2)c2ccc(OC)cc2)cc1)OCC | 55 | 0.1
COc1ccc([C@](C)(NC[C@H](O)c2ccc(O)c(NS(C)(=O)=O)c2)C(=O)Nc2ccccc2OC)cc1 | 60 | –
COc1ccc([C@](C)(NC[C@H](O)c2ccc(O)c(NS(C)(=O)=O)c2)C(=O)Nc2cccc(OCC(=O)O)c2)cc1 | 87 | –
COc1ccc([C@](C)(NC[C@H](O)c2ccc(O)c(NS(C)(=O)=O)c2)C(=O)Nc2ccc(OCC(=O)O)cc2)cc1 | 100 | –
COc1ccc([C@](C)(NC[C@H](O)c2ccc(O)c(NS(C)(=O)=O)c2)C(=O)Nc2cccc(OCCN(C)C)c2)cc1 | 85 | –
COc1ccc([C@](C)(NC[C@H](O)c2ccc(O)c(NS(C)(=O)=O)c2)C(=O)Nc2ccc3sc(C)nc3c2)cc1 | 70 | –
COc1ccc([C@](C)(NC[C@H](O)c2ccc(O)c(NS(C)(=O)=O)c2)C(=O)Nc2ccc(OC)c(OC)c2)cc1 | 89 | –
COc1ccc([C@](C)(NC[C@H](O)c2ccc(O)c(NS(C)(=O)=O)c2)C(=O)Nc2cc(Cl)c(Cl)c(Cl)c2)cc1 | 15 | –
COc1ccc([C@](C)(NC[C@H](O)c2ccc(O)c(NS(C)(=O)=O)c2)C(=O)Nc2ccc(OCCN(C)C)cc2)cc1 | 92 | –
COc1ccc(NC(=O)[C@@](C)(NC[C@H](O)c2ccc(O)c(NS(C)(=O)=O)c2)c2ccc(OC)cc2)cc1 | 85 | –
COc1ccc([C@H](NC[C@H](O)c2ccc(O)c(NS(C)(=O)=O)c2)C(=O)Nc2ccccc2)cc1 (stereo in doubt; 16) | 95 | –
COc1ccc([C@H](NC[C@H](O)c2ccc(O)c(NS(C)(=O)=O)c2)C(=O)Nc2ccc3c(c2)OCO3)cc1 (stereo in doubt; 17) | 93 | 0.08
